Assay results taken from patent publication US20240041042A1, “1-(PYRIDYL)-5-AZINYLPYRAZOLE DERIVATIVES, AND THEIR USE FOR CONTROL OF UNDESIRED PLANT GROWTH” (Bayer Aktiengesellschaft, priority 2020, published 2024).
Where two headings read alike, the source gives them in different places.

What was measured:
Assay type in all cases: in vivo
[1] = test system: Glycine max (GLXMA); details: pre-emergence, crop plant compatibility, in comparison to untreated controls
Outline: (§1)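 Scoring: visual, % of untreated control, about 3 weeks after a pre-emergence application to the soil surface. Application used WP or EC formulations diluted in water with 0.5% additive at 600 l/ha; dosage levels are marked by suffixes a, b and c.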

[2] = test system: Zea mays (ZEAMX); details: pre-emergence, crop plant compatibility, in comparison to untreated controls
Outline: as §1

[3] = test system: Oryza sativa (ORYSA); details: pre-emergence, crop plant compatibility, in comparison to untreated controls
Outline: as §1

[4] = test system: Triticum aestivum (TRZAS); details: pre-emergence, crop plant compatibility, in comparison to untreated controls
Outline: as §1

[5] = test system: Brassica napus (BRSNW); details: crop plant compatibility, in comparison to untreated controls
Outline: as §1

[6] = test system: Zea mays (ZEAMX); details: for Post-emergence action against ZEAMX in % (crop plant compatibility): 20 g/ha, effect in comparison to untreated controls; for Post-emergence action against ZEAMX in %: crop plant compatibility, effect vs untreated controls
Outline: (§2)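 Foliar application at the one-leaf stage: WP/EC formulation, 0.5% additive, 600 l/ha water. Greenhouse-grown in sandy loam. Endpoint is visual % injury relative to untreated controls at about 3 weeks.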

[7] = test system: Oryza sativa (ORYSA); details: crop plant compatibility
Outline: as §2

[8] = test system: Triticum aestivum (TRZAS); details: crop plant compatibility, effect vs untreated controls
Outline: as §2

[9] = test system: Verconica persica (VERPE); assay: Pre-emergence herbicidal action against VERPE; details: dosage 320 g/ha
Outline: (§3)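 Greenhouse pot trial: seeds sown, soil-covered, sprayed before emergence with compound in water (0.5% additive; 600 l/ha; ≤320 g/ha). Scoring visual, ~3 weeks, 0–100% scale vs untreated.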

[10] = test system: Brassica napus (BRSNW); assay: Post-emergence crop plant compatibility, BRSNW; details: effect in comparison to untreated controls
Method: Seeds of monocotyledonous and dicotyledonous weeds and crop plants are placed in sandy loam in plastic or organic planting pots, covered with soil and cultivated in a greenhouse under controlled growth conditions. 2 to 3 weeks after sowing, the test plants are treated at the one-leaf stage. The compounds of the invention, formulated in the form of wettable powders (WP) or as emulsion concentrates (EC), are then sprayed onto the green parts of the plants as aqueous suspension or emulsion with addition of 0.5% additive at a water application rate of 600 l/ha (converted). After the test plants have been kept in the greenhouse under optimum growth conditions for about 3 weeks, the activity of the preparations is rated visually in comparison to untreated controls. For example, 100% activity=the plants have died, 0% activity=like control plants.
The observed effects on selected crop plants are reported here in comparison to the untreated controls (values in %). The appendices “a”, “b” and “c” give differentiation by dosage used with otherwise the same crop plants tested.

[11] = test system: Glycine max (GLXMA); assay: Post-emergence crop plant compatibility, GLXMA; details: for Post-emergence action against GLXMA in %: effect in comparison to untreated controls
Outline: as §2

[12] = test system: Viola tricolor (VIOTR); assay: Pre-emergence herbicidal action against VIOTR; details: 320 g/ha, Viola tricolor
Outline: as §3

[13] = 20 g/ha, effect vs untreated controls
[14] = 80 g/ha, effect in comparison to untreated controls

| Compound | Pre-emergence action against GLXMA in % ([1]; 320 g/ha) | Pre-emergence action against ZEAMX in % ([2]; 80 g/ha) | Pre-emergence action against ZEAMX in % ([2]; 320 g/ha) | Pre-emergence action against ORYSA in % ([3]; 80 g/ha) | Pre-emergence action against ORYSA in % ([3]; 320 g/ha) | Pre-emergence action against TRZAS in % ([4]; 80 g/ha) | Pre-emergence action against TRZAS in % ([4]; 320 g/ha) | Pre-emergence action against BRSNW in % ([5]; 80 g/ha) | Pre-emergence action against BRSNW in % ([5]; 320 g/ha) | Post-emergence action against ZEAMX in % (crop plant compatibility) [6] | Post-emergence action against ZEAMX in % ([6]; 80 g/ha) | Post-emergence action against ORYSA in % [7, 13] | Post-emergence action against ORYSA in % [7, 14] | Post-emergence action against TRZAS in % ([8]; 20 g/ha) | Post-emergence action against TRZAS in % ([8]; 80 g/ha) | Post-emergence action against BRSNW in % ([10]; 20 g/ha) | Post-emergence action against BRSNW in % ([10]; 80 g/ha) | Post-emergence action against GLXMA in % ([11]; 20 g/ha) | Post-emergence action against GLXMA in % ([11]; 80 g/ha) | Pre-emergence action against GLXMA in % ([1]; 80 g/ha) | other results |
| --- | --- | --- | --- | --- | --- | --- | --- | --- | --- | --- | --- | --- | --- | --- | --- | --- | --- | --- | --- | --- | --- |
| CCOC(=O)C1CCN(C(=O)COc2nn(-c3ccccn3)c(-c3ccc(F)nc3)c2Br)CC1 [Example I-112] | 20% | 0% | 10% | 0% | 10% | 0% | 10% | 10% | 10% | 0% | 10% | 0% | 0% | 0% | 0% | 0% | 10% | 0% | 10% |  | Pre-emergence action against VERPE in % [9]: 80% |
| COC(=O)CN(C)C(=O)COc1nn(-c2ccnc(Cl)c2)c(-c2ccc(F)nc2)c1Br [III-21] | 0% | 0% | 20% | 0% | 0% | 20% |  | 20% | 20% | 0% | 0% | 0% | 20% | 0% | 0% | 0% | 0% | 0% | 0% | 0% |  |
| O=C(CSc1nn(-c2ccccn2)c(-c2cncc(F)c2)c1Br)NS(=O)(=O)c1ccccc1 [Example I-200] | 20% | 0% | 0% | 20% | 20% | 0% | 10% | 0% | 0% |  | 0% |  | 0% |  | 0% |  | 10% |  | 0% | 20% | Pre-emergence action against VIOTR in % [12]: 100%; Post-emergence action against ZEAMX in % ([6]; 320 g/ha): 0%; Post-emergence action against ORYSA in % ([7]; 320 g/ha, effect in comparison to untreated controls): 0%; Post-emergence action against TRZAS in % ([8]; 320 g/ha): 0%; Post-emergence action against BRSNW in % ([10]; 320 g/ha): 20%; Post-emergence action against GLXMA ([11]; 320 g/ha, effect vs untreated controls): 0% |
| COC(=O)C1CCCN(C(=O)COc2nn(-c3ccccn3)c(-c3ccc(F)nc3)c2Br)C1 (centres unmarked) [Example I-108] | 0% | 10% | 10% | 0% | 10% | 0% | 10% | 10% | 20% | 0% | 10% | 0% | 10% | 0% | 20% | 10% |  | 0% | 10% | 0% |  |
| O=C(COc1nn(-c2ccnc(Cl)c2)c(-c2ccc(F)nc2)c1Br)NS(=O)(=O)CC(F)(F)F [III-20] | 20% | 0% | 0% | 0% | 10% | 0% | 0% | 0% |  | 0% |  | 0% | 0% | 0% | 0% | 0% |  | 0% | 0% |  |  |
